This is an account of results in patent publication US4237311A, “2-Methyl-1-(substituted)phenyl-2-propyl esters of 2-aminopropanoic acid” (priority 1974, dated 1980).

By ED50 is commonly meant the dose at which the effect has come halfway, by size or by number of responders. As usually defined, the LD50 is the dose at which mortality reaches 50%.

In one data set the test system is 5-HTP response. Kind of data set: 5-HTP response potentiation test. The class given is in vivo, mice. Particulars: for minimal effective dose: Mus musculus, ip, test drug one hour (or 4, 24 hours) before dl-5-HTP 90 mg/kg i.v., mice, read-out: Potentiation of 5-HTP, effective dose (least dose producing maximal score +3 in all animals). The text has this:
1. 5-HTP response potentiation test
Inhibition of the uptake of 5-HT potentiates the effects of administered 5-hydroxytryptophan (5-HTP) probably by increasing the amount of 5-HT at the receptor. […] The strength of the syndrome is scored from 0 to +3.

The test system of data set [1] is NA uptake (noradrenaline). The experiment in a line: Inhibition of the uptake of tritiated noradrenaline (drug given i.p. in vivo, uptake in midbrain slices). Set-up: species or system mice. Conditions: ip, 0.5 h, half an hour before killing, mouse midbrain slices, noradrenaline 1×10^-7 M, 5 min incubation, read-out: Inhibition (50%) of uptake in vivo, NA (ED50). The procedure: (§1) 1. Inhibition of the uptake of carbon-14 5-HT and tritiated noradrenaline in vitro and in vivo
(§2) The drugs were administered intraperitoneally half an hour before the animals were killed and the midbrain was taken out and sliced and incubated in a mixture consisting of, per 100 mg of brain slices, 0.2 n-mole of ^14 C--5--HT, 0.2 n-mole of ^3 H--NA and 11 μmole of glucose in 2 ml of Krebs-Henseleit buffer, pH 7.4. The incubation time was 5 minutes. The radioactive amines taken up in the slices were dissolved in Soluene-350®(Packard) and the amounts were determined with the double labelling technique by liquid scintillation. The dose producing 50 percent decrease of the active uptake (ED50) was determined graphically from dose response curves. Active uptake is defined as that part of the radioactive uptake which is inhibited by a high concentration of cocaine. All doses were given at least to four animals.

The test system of data set [2] is 5-HT uptake (5-hydroxytryptamine). The experiment in a line: Inhibition of the uptake of 14C-5-HT (drug given i.p. in vivo, uptake in midbrain slices). Further details: species or system mice. Particulars: ip, 0.5 h, half an hour before killing, mouse midbrain slices, 5-HT 1×10^-7 M, 5 min incubation, read-out: Inhibition (50%) of uptake in vivo, 5-HT (ED50). The procedure:
as §1
as §2, with “The method is described by Ross, Renyi and Ogren in European Journal of Pharmacology 17 (1972), 107-112. […] The drugs” for “The drugs”

A short description of a further data set: in vivo. Conditions: mouse, iv, mice, killing 50% within 7 days, read-out: Acute toxicity LD50. The procedure: ACUTE TOXICITY, BEHAVIOUR AND ANTICHOLINERGIC STUDY IN MICE
The compounds were given by intravenous route to 6 mice. LD50 is the dose which kills 50% of the animals within 7 days. Seizures, gait, sedation and gripstrength were recorded.

Another data set concerns male rats. Kind of data set: Drug induced arrhythmias in rats. The class given is in vivo. Particulars: male rats anesthetized with Nembutal, stepwise increased doses. The text has this:
DRUG INDUCED ARRHYTHMIAS IN RATS
Test drugs were intravenously administered to male rats anesthetized with Nembutal®. The doses were increased stepwise up to the lethal dose and the first dose which induced arrhythmia was noted.

A further data set deals with man. Particulars: cited from earlier work.
Data set [3] has as its system noradrenaline (NA) re-uptake mechanism. Particulars: central nervous system; cited from earlier work.
Data set [4] relates to 5-hydroxytryptamine (5-HT) re-uptake mechanism. Conditions: central nervous system; cited from earlier work.

As for `CC(N)C(=O)OC(C)(C)Cc1ccc(Cl)cc1.Cl` (centres unmarked) [GEA 654, 2-aminopropanoic acid 1-(4-chlorophenyl)-2-methyl-2-propylester hydrochloride], the minimal effective dose with 5-HTP response was found to be 1 mg/kg. For the same molecule, the ED50 in data set [1] is more than 40 mg/kg; in data set [2] it was 15 mg/kg. In addition, the LD50 at 168 h in “in vivo” turned out to be 70 mg/kg. The “Arrhythmia, accumulated i.v. dose where there are signs of arrhythmia” value in the data set on male rats is 63 mg/kg.
`CC(N)C(=O)OC(C)(C)Cc1ccc(Cl)c(Cl)c1` (centres unmarked) [GEA 699]: the minimal effective dose in the data set with 5-HTP response came to 7 mg/kg. In addition, the ED50 in data set [1] is more than 40 mg/kg; in data set [2], 15 mg/kg.
In the case of `CC(N)C(=O)OC(C)(C)Cc1ccc(F)cc1` (centres unmarked) [GEA 822], the ED50 in data set [1] was more than 40 mg/kg; in data set [2], 30 mg/kg.
In the case of `CC(N)C(=O)OC(C)(C)Cc1ccccc1` (centres unmarked) [GEA 916], the minimal effective dose in the data set with 5-HTP response was 8 mg/kg. Moreover, the ED50 in data set [1] is more than 40 mg/kg; in data set [2] it was 15 mg/kg.
Take `CC(N)C(=O)OC(C)(C)Cc1ccc(Br)cc1` (centres unmarked) [GEA 917]: the minimal effective dose in the data set on 5-HTP response came to 5 mg/kg. Besides, the ED50 in data set [1] is more than 40 mg/kg; in data set [2], 25 mg/kg.
Regarding `CC(N)C(=O)OC(C)(C)Cc1cccc(Cl)c1` (centres unmarked) [GEA 935], in the data set with 5-HTP response, the minimal effective dose came to 3 mg/kg. Further, the ED50 in data set [1] was more than 40 mg/kg; in data set [2] it was 5 mg/kg.
Take `Cc1ccc(CC(C)(C)OC(=O)C(C)N)cc1` (centres unmarked) [GEA 937]: in the data set with 5-HTP response, the minimal effective dose came out at 12 mg/kg. Also, the ED50 in data set [1] is more than 40 mg/kg; in data set [2], 10 mg/kg.
Take `CN(C)CCCN1c2ccccc2CCc2ccccc21` [Imipramine]: in the data set on man, the “anticholinergic effect and symptoms (in words)” value was “anticholinergic and causes anticholinergic symptoms such as dryness of the mouth, tremor, tachycardia and sweating”; the “mood and psychomotor effect (in words)” value was “both mood elevating and psychomotor activating”. In addition, in the data set on man (treatment with imipramine), the “onset of the antidepressive effect” value is “about 3 weeks”. Moreover, the minimal effective dose in the data set on 5-HTP response stood at 15 mg/kg. Also, the “potentiation of dl-5-HTP by the reference drug (in words)” value in the data set on 5-HTP response (control groups, reference) is “constantly potentiated dl-5-HTP”. Moreover, the “inhibition of the re-uptake mechanism of noradrenaline (in words)” value in data set [3] is given as “inhibits the re-uptake mechanism of noradrenaline (NA)”. In data set [1], the ED50 stood at 6 mg/kg. Besides, in data set [2], the ED50 is 24 mg/kg. Also, the “inhibition of the re-uptake mechanism of 5-hydroxytryptamine (in words)” value in data set [4] was “inhibits the re-uptake mechanism of noradrenaline (NA) and 5-hydroxytryptamine (5-HT)”. The “Arrhythmia, accumulated i.v. dose where there are signs of arrhythmia” value in the data set with male rats is given as 8 mg/kg.
